Assays:
Format in all cases: in vivo, human
[1] = system: central memory T cells; assay: Cultured IFN-γ ELISPOT after 10-day in vitro stimulation of PBMC, phase 1/2 colon cancer trial of OSE-2101; design: key to net SFC of vaccine positive CTL responses: —, indicates SFC response did not meet criteria and vaccine response was negative; details: for Mean SFC: 10 colon patients
Procedure: (§1) Clinical study design. Both trials were designed as phase 1/2, open label, multi-center, single dose, multiple administration studies to evaluate the safety and immunogenicity of the OSE-2101 immunotherapy. Patients were treated with 1 ml OSE-2101 every 3 weeks for a total of six doses. Each dose was administered subcutaneously in the same vicinity in the deltoid or upper thigh region, or at a contralateral site if local side-effects were observed. The study duration for each completed patient was 18 weeks. Clinical responses or patient survival were not measured in either phase 1/2 studies.
(§2) Clinical sample processing. Blood or leukapheresis product was obtained from patients at the pre-treatment, the Week 9 and Week 18 time points, 3 weeks after the third and sixth dose of OSE-2101 respectively. Peripheral blood mononuclear cells (PBMC) were isolated from samples within 24 hours of collection using a FICOLL-PAQUE density gradient and cryopreserved in containers designed to ensure optimal freezing (Mr. Frosty, Nalgene). For use, cells were rapidly thawed at 37° C. then transferred to human AB serum-containing medium for work-up.
(§3) Measurement of central T memory cells responses and T effector memory cells. The CTL responses in 16 total patients (10 colon and six NSCLC) were monitored for CTL responses against each epitope and against the wild-type epitope of epitopes analogs. For each patient, the pre-treatment, Week 9 and Week 18 time points were batch-tested in the same experiment to allow pre- versus post-treatment response comparison in the same experiment. Central T memory cells responses were measured using an IFN-γ enzyme-linked immunospot (cultured ELISPOT) assay following in vitro stimulation of PBMC for 10 days with each vaccine epitope. Briefly, PBMC from each time point were stimulated on day 0 with 10 μg/ml of each epitope individually in replicate in 48-well culture plates (2×10^6 PBMC/well). All cultures were fed with rIL-2 (Endogen, Woburn, Mass.; 10 U/ml final concentration) on days 1, 4 and 7. Ten days after initiation of culture, cells were harvested and tested for activity against specific vaccine peptides and corresponding wild-type peptides of vaccine analogs in the T memory ELISPOT assay. Cells were tested in Millipore IP 96-well plates pre-coated with mouse anti-human IFN-γ antibody (Mabtech USA, Cincinnati, Ohio). Five×10^4 cells and 1.25×10^4 cells from each culture were plated in triplicate wells together with 10^5 irradiated autologous PBMC and 10 μg/ml peptide. As a control, CTL were also tested against an irrelevant HLA-A2.1-binding HBV peptide. After 20 hours incubation, T memory ELISPOT plates were developed by performing sequential incubations with biotinylated anti-human IFN-γ antibody (Mabtech USA), Avidin-Peroxidase Complex (APC, Vector Laboratories, Burlingame, Calif.), and 3-amino-9-ethyl carbazole (AEC) substrate (Sigma Aldrich, St. Louis, Mo.). Spot-forming cells (SFC) were enumerated using a computer-assisted image analysis system (Zeiss KS ELISPOT Reader, Carl Zeiss MicroImaging, Thornwood, N.J.). Data is reported as the net SFC per 5×10^4 cells after subtracting spots induced with the irrelevant HBV peptide.

[2] = system: central memory T cells; assay: Central memory T cell cultured ELISPOT, phase 2 trial in advanced NSCLC
Procedure: CTL Immune responses measured though cultured Elispot. The immunogenicity was measured in Phase 2 clinical trial on cryopreserved PBMC from each test sample were thawed in 5% human culture medium (RPMI-1640 medium with 25 mM HEPES, supplemented with 5% human AB serum, 4 mM L-glutamine, 0.5 mM sodium pyruvate, 0.1 mM MEM non-essential amino acids, 100 μg/ml streptomycin, and 100 U/ml penicillin) containing 30 μg/ml DNAase. After centrifugation for 5 minutes at 1200 rpm, the cell pellets were resuspended in 5% human culture medium and washed 2 times. For the central Memory T cell cultured ELISPOT assay, 2×10^6/ml PBMC were placed in replicate wells in a 48-well plates and stimulated for 10 days with 10 μg/ml of each peptide. As a positive control, PBMC were also stimulated with a pool of recall viral peptides. Human rIL2 (10 U/ml) was added to the peptide-stimulated cultures at day 1, day 4 and day 7. After 10 days the stimulated cells were harvested and plated at a concentration of 5×10^4/well. Assay wells also received irradiated autologous PBMC (1×10^5/well) and 10 μg/ml peptide, either the vaccine peptide, irrelevant peptide or positive control peptides. Cells stimulated in vitro with each analog epitope were also tested against the corresponding wild-type epitope.
Data analysis and acceptance criteria. Mean and standard deviation (SD) of spots in replicate wells were calculated in all assays by transferring raw ELISPOT data from each experiment to an Excel-based computer program. Positive vaccine-induced T-cell responses were determined according to the criteria described below.
Acceptance Criteria for peptide-Induced specific T-cell response through central memory T cells: The positive criteria for CTL responses used in the phase 2 trial was identical to the criteria in the phase 1/2 trials which was established prospectively after analyzing the variability of pre-treatment responses in patients against each vaccine epitope and the irrelevant HBV control epitope. A positive peptide-induced CTL/T memory response to a given epitope met all of the following conditions: 1) was greater than 5 SFC above the irrelevant epitope response, 2) was greater than the mean SFC of the irrelevant epitope response, plus 2 SD, and 3) was two-fold greater than the SFC response in the pre-vaccination sample from the same patient, plus 2 SD. The inclusion of “plus two standard deviations” was used to accommodate the assay variability and served to increase the criteria stringency.

[3] = system: central memory T cells; assay: Cultured IFN-γ ELISPOT after 10-day in vitro stimulation of PBMC, phase 1/2 NSCLC trial of OSE-2101; design: key to net SFC of vaccine positive CTL responses: —, indicates SFC response did not meet criteria and vaccine response was negative; details: for Mean SFC / No. Positive Responses: 6 NSCLC patients
Procedure: as §1, §2, §3

## IMIGHLVGV [CEA.691H5 A]
[1]; Week 9
  Mean SFC: 178.0 SFC per 50,000 cells
[1]; Week 18
  Mean SFC: 300.6 SFC per 50,000 cells
[1]; colon patient 551, Week 9
  net SFC of vaccine positive CTL responses: 92.7 SFC per 50,000 cells
[1]; colon patient 551, Week 18
  net SFC of vaccine positive CTL responses: 68.7 SFC per 50,000 cells
[1]; colon patient 601, Week 9
  net SFC of vaccine positive CTL responses: 417.3 SFC per 50,000 cells
[1]; colon patient 601, Week 18
  net SFC of vaccine positive CTL responses: 133.7 SFC per 50,000 cells
[1]; colon patient 602, Week 9
  net SFC of vaccine positive CTL responses: —
[1]; colon patient 602, Week 18
  net SFC of vaccine positive CTL responses: —
[1]; colon patient 603, Week 9
  net SFC of vaccine positive CTL responses: 32.7 SFC per 50,000 cells
[1]; colon patient 603, Week 18
  net SFC of vaccine positive CTL responses: 8.0 SFC per 50,000 cells
[1]; colon patient 604, Week 9
  net SFC of vaccine positive CTL responses: 109.3 SFC per 50,000 cells
[1]; colon patient 604, Week 18
  net SFC of vaccine positive CTL responses: 397.3 SFC per 50,000 cells
[1]; colon patient 605, Week 9
  net SFC of vaccine positive CTL responses: 65.7 SFC per 50,000 cells
[1]; colon patient 605, Week 18
  net SFC of vaccine positive CTL responses: —
[1]; colon patient 606, Week 9
  net SFC of vaccine positive CTL responses: 24.3 SFC per 50,000 cells
[1]; colon patient 606, Week 18
  net SFC of vaccine positive CTL responses: 45.0 SFC per 50,000 cells
[1]; colon patient 607, Week 9
  net SFC of vaccine positive CTL responses: 593.3 SFC per 50,000 cells
[1]; colon patient 607, Week 18
  net SFC of vaccine positive CTL responses: 1648.0 SFC per 50,000 cells
[1]; colon patient 608, Week 9
  net SFC of vaccine positive CTL responses: —
[1]; colon patient 608, Week 18
  net SFC of vaccine positive CTL responses: 18.0 SFC per 50,000 cells
[1]; colon patient 609, Week 9
  net SFC of vaccine positive CTL responses: 89.0 SFC per 50,000 cells
[1]; colon patient 609, Week 18
  net SFC of vaccine positive CTL responses: 86.0 SFC per 50,000 cells
[2]; phase 2, month 9
  % of patients with positive CTL/central memory T cell response: 43%
  patients with positive CTL/central memory T cell response / patients tested: 3/7
[2]; phase 2, month 12
  % of patients with positive CTL/central memory T cell response: 50%
  patients with positive CTL/central memory T cell response / patients tested: 2/4
[2]; phase 2, week 9
  % of patients with positive CTL/central memory T cell response: 64%
  patients with positive CTL/central memory T cell response / patients tested: 7/11
[2]; phase 2, week 18
  % of patients with positive CTL/central memory T cell response: 91%
  patients with positive CTL/central memory T cell response / patients tested: 10/11
[2]; phase 2, week 30
  % of patients with positive CTL/central memory T cell response: 33%
  patients with positive CTL/central memory T cell response / patients tested: 2/6
[3]; Week 9
  Mean SFC: 84.2 SFC per 50,000 cells
  No. Positive Responses: 2
[3]; Week 18
  Mean SFC: 132.7 SFC per 50,000 cells
  No. Positive Responses: 3
[3]; NSCLC patient 201, Week 9
  net SFC of vaccine positive CTL responses: —
[3]; NSCLC patient 201, Week 18
  net SFC of vaccine positive CTL responses: —
[3]; NSCLC patient 502, Week 9
  net SFC of vaccine positive CTL responses: —
[3]; NSCLC patient 502, Week 18
  net SFC of vaccine positive CTL responses: —
[3]; NSCLC patient 504, Week 9
  net SFC of vaccine positive CTL responses: 42.7 SFC per 50,000 cells
[3]; NSCLC patient 504, Week 18
  net SFC of vaccine positive CTL responses: 284.0 SFC per 50,000 cells
[3]; NSCLC patient 505, Week 9
  net SFC of vaccine positive CTL responses: —
[3]; NSCLC patient 505, Week 18
  net SFC of vaccine positive CTL responses: 45.3 SFC per 50,000 cells
[3]; NSCLC patient 532, Week 9
  net SFC of vaccine positive CTL responses: 125.7 SFC per 50,000 cells
[3]; NSCLC patient 532, Week 18
  net SFC of vaccine positive CTL responses: —
[3]; NSCLC patient 651, Week 9
  net SFC of vaccine positive CTL responses: —
[3]; NSCLC patient 651, Week 18
  net SFC of vaccine positive CTL responses: 68.7 SFC per 50,000 cells

— patent US11191820B2, “Method for inducing early T memory response with short peptides anti-tumor vaccine” (OSE IMMUNOTHERAPEUTICS, priority 2015, dated 2021)
